Reference: US20160375050A1, “METHODS AND COMPOSITIONS INVOLVING CHITOSAN NANOPARTICLES” (The Board of Regents of the University of Texas System, priority 2007, published 2016)

Assays:
[1] = system: EZH2 promoter in EAhy926 endothelial cell line; experiment: EZH2 promoter luciferase reporter assay; format: cell-based, human; details: EAhy926, 6 hours, EGF 25 ng/mL, VEGF 50 ng/mL
Protocol: Relative activity of the EZH2 promoter in the EAhy926 cell line was determined by luciferase reporter assay. Cells were transfected in low-serum medium (0.5% serum) with the firefly luciferase plasmid, either empty vector (pGL3-Basic) or the EZH2 promoter construct vector (EZH2prom-pGL3-Basic), in 12-well plates using Effectene® Transfection Reagent from Qiagen (Valencia, Calif.). Cells were then maintained in low-serum medium for 18 hours, washed in warm 1× phosphate-buffered saline (PBS), and treated in triplicate at 37° C. for 6 hours. Treatments included recombinant human (rh) EGF (EGF; 25 ng/mL; Invitrogen) and rhVEGF165 (VEGF; 50 ng/mL; Peprotech, Rocky Hill, N.J.), each in fresh medium plus 0.5% serum, fresh complete medium plus 10% serum, and conditioned media from immortalized ovarian surface epithelium (105E120) and from papillary serous ovarian cancer cell lines (OVCA420 and SKOV3). Medium in control wells (pGL3-Basic transfectants) was not changed on the day of treatment. Following treatment, cells were washed briefly in cold 1×PBS and lysates were collected and processed using the Dual-Luciferase® Reporter Assay System (Promega Corp.). Firefly luciferase readings were averaged and normalized to pGL3-Basic control readings for percent fold changes.

VASH1 mRNA in MOEC = experiment: VASH1 mRNA after EZH2 gene silencing, real-time qRT-PCR; format: cell-based, mouse; details: 72 hours after transfection
Protocol: Relative expression of EZH2 and VASH1 mRNA in HUVEC and MOEC cells was determined by real-time quantitative RT-PCR. Cells were seeded at 1.0×10^4 cells per well in 96-well plates in complete medium and incubated at 37° C. for 24 hours, and then in low-serum medium (0.5% serum) for 18 hours, minus EGF and VEGF supplements where appropriate. After washing with warm PBS, cells were treated in triplicate at 37° C. for six hours with EGF (25 ng/mL) and VEGF (50 ng/mL), each in fresh medium (lacking supplemental EGF or VEGF) with no serum, fresh complete medium plus 2% serum, and conditioned media. Relative expression of VASH1 mRNA in MOEC cells was determined by transfecting cells with EZH2 mouse siRNA. Samples were collected after 72 hours of transfection. Real-time quantitative RT-PCR was performed using 50 ng total RNA isolated from treated cells using the RNeasy Mini Kit (Qiagen). Relative expression values were obtained using the average of three reference genes and the 2^−ΔΔCT method as described previously, and normalized to control for percent fold changes (Donninger et al., 2004).

Row | Substance | EZH2 promoter activity [1] | increase in VASH1 mRNA compared to control siRNA treated cells (VASH1 mRNA in MOEC) [fold]
1 | EGF: recombinant human EGF, Invitrogen (NSDSECPLSHDGYCLHDGVCMYIEALDKYACNCVVGYIGERCQYRDLKWWELR; Epidermal growth factor; UniProt P01133 971-1023, looked up) | significant increase | –
2 | VEGF | significant increase | –
3 | mouse EZH2 siRNA: Murine EZH2 siRNA, target 5′-GCACAAGTCATCCCGTTAATT-3′ (SEQ ID NO: 15), transfected in vitro (target site or template, no part of the molecule; listed as DNA, chemistry not given here) | – | 2.8
